Experimental findings from US8772511B2, “Azabicyclic carbamates and their use as alpha-7 nicotinic acetylcholine receptor agonists” (Bayer Intellectual Property GmbH, priority 2002, dated 2014) are described below.

The target in one test is α7 nAChR (Rattus norvegicus (Rat), UniProt Q05941). As to the kind of experiment: Affinity for α7 nAChR by inhibition of [3H]-methyllycaconitine binding to rat brain membranes. The procedure:
1. Determination of the Affinity of Test Substances for α7 nAChR by Inhibition of [^3H]-Methyllycaconitine Binding to Rat Brain Membranes
The [^3H]-methyllycaconitine binding assay is a modification of the method described by Davies et al. in Neuropharmacol. 1999, 38, 679-690.
Rat brain tissue (hippocampus or whole brain) is homogenized in aqueous homogenization buffer (10% w/v, 0.32 M sucrose, 1 mM EDTA, 0.1 mM phenylmethylsulfonyl fluoride (PMSF), 0.01% (w/v) NaN3, pH 7.4, 4° C.) at 600 rpm in a glass homogenizer. The homogenate is centrifuged (1000×g, 4° C., 10 min) and the supernatant is removed. The pellet is resuspended (20% w/v) and the suspension is centrifuged (1000×g, 4° C., 10 min). The two supernatants are combined and centrifuged (15 000×g, 4° C., 30 min). The pellet obtained in this way is referred to as the P2 fraction.
The P2 pellet is suspended in binding buffer (50 mM Tris-HCl, 1 mM MgCl2, 120 mM NaCl, 5 mM KCl, 2 mM CaCl2, pH 7.4), and the suspension is centrifuged (15 000×g, 4° C., 30 min), twice.
The residue is resuspended in binding buffer to a concentration of […] and incubated in a volume of 250 μl (amount of membrane protein 0.4 mg) in the presence of 2 nM [3H]-methyllyeaconitine, 0.1% (w/v) BSA (bovine serum albumin) and various concentrations of the test substance at 21° C. for 60 min.
Incubation is then carried out in the presence of 1 μM α-bungarotoxin or 100 μM nicotine or 10 μM MLA (methyllycaconitine). The incubation is stopped by adding 4 ml of PBS (20 mM Na2HPO4, 5 mM KH2PO4, 150 mM NaCl, pH 7.4, 4° C.) and filtering through type A/E glass fiber filters (Gelman Sciences) which have previously been placed in 0.3% (v/v) polyethyleneimine (PEI) for 3 h. The filters are washed twice with 4 ml of PBS (4° C.), and the bound radioactivity is determined by scintillation measurement. All the assays are carried out in triplicate. The dissociation constant Ki of the test substance was determined from the IC50 of the compounds (concentration of the test substance at which 50% of the ligand bound to the receptor is displaced), the dissociation constant KD and the concentration L of [^3H]-methyllycaconitine using the equation Ki=IC50/(1+L/KD).

The target in test [1] is recombinant human 5-HT3 receptor (Homo sapiens (Human), UniProt P46098). In words: Affinity for 5-HT3 receptors through inhibition of [3H]GR65630 binding. The procedure: 2. Determination of the Affinity of Test Substances for 5-HT3 Receptors Through Inhibition of [^3H]GR65630 Binding
Sequence of recombinant human 5-HT3 receptor (P46098 24-478): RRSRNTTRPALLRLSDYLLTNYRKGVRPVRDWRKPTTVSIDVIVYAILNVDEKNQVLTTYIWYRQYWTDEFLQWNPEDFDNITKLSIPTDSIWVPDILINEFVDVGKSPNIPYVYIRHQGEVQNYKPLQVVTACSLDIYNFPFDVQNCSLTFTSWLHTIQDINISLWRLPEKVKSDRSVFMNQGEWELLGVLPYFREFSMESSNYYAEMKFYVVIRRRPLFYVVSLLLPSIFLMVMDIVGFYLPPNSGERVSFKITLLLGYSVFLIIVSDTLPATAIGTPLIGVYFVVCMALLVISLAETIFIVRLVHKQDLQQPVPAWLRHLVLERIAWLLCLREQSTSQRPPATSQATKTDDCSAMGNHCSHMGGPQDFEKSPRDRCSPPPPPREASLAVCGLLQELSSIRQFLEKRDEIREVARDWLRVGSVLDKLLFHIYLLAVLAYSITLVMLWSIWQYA
Membranes from HEK293 cells which express recombinant human 5-HT3 receptor (RB-HS3, Receptor Biology, Inc., MD, USA) are diluted in accordance with the manufacturer's instructions in incubation buffer (50 mM Iris base, pH 7.4, 5 mM MgCl2, 0.5 mM EDTA, 0.1% (w/v) ascorbic acid, 10 μM pargyline and incubated in a volume of 200 μl (amount of membrane protein 3 μg) in the presence of 0.5 nM of the selective 5-HT3 receptor radio ligand [^3H]-GR65630 (NET 1011, Du Pont) and various concentrations of the test substance at 21° C. for 60 min. The nonspecific binding is determined by incubation in the presence of 100 μM 5-HT (5-hydroxytryptamine). The incubation is stopped by filtering through type A/E glass fiber filters (Gelman Sciences) or GF/B filters (Whatman) which have previously been placed in 0.3% (v/v) polyethyleneimine (PEI) for at least 1 h. The filters are washed three times with 3 ml of washing buffer (50 mM Tris-HCl, pH 7.4; 4° C.), and the bound radioactivity is determined by scintillation measurement. All the assays are carried out in triplicate. The dissociation constant Ki of the test substance is determined from the IC50 of the compounds (concentration of the test substance at which 50% of the ligand bound to the receptor is displaced), the dissociation constant KD and the concentration L of [^3H]GR65630 (Ki=IC50/(1+L/KD)).

[2] abbreviates: [3H]-methyllycaconitine displacement, rat brain membranes, read-out: Ki.
[3] abbreviates: [3H]GR65630 displacement, membranes from HEK293 cells expressing human 5-HT3 receptor, read-out: Ki.

Counter-ions that a name gives are not always drawn. Like-named read-outs stand apart in the source and are kept apart here.

Sequence of α7 nAChR (Q05941 23-502 limits assumed): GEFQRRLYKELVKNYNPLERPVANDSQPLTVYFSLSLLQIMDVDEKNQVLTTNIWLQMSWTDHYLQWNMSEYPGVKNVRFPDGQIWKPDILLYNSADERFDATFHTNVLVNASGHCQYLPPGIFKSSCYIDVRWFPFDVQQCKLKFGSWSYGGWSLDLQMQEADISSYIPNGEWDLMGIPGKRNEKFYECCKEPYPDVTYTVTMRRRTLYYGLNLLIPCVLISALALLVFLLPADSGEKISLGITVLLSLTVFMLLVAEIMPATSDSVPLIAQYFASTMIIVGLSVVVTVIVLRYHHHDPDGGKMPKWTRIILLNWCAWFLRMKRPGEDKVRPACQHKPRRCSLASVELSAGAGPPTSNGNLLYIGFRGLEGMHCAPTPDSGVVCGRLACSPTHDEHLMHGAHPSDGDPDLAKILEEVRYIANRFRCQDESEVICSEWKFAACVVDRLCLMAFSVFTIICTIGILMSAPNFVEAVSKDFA

One may read the Ki as the dissociation constant of the complex between target and ligand, obtained from inhibition or displacement. As for `COc1ccc(NC(=O)Nc2ccc3cc(C(=O)N[C@H]4CN5CCC4CC5)sc3c2)cc1` [Example 4, N-[(3R)-1-Azabicyclo[2.2.2]oct-3-yl]-6-({[(4-methoxyphenyl)amino]carbonyl}-amino)-1-benzothiophene-2-carboxamide hydrochloride], the Ki at α7 nAChR (setting [2]) amounted to 2.1 nM.
`O=C(NCCc1ccccc1)Nc1ccc2cc(C(=O)N[C@H]3CN4CCC3CC4)sc2c1` [Example 5, N-[(3R)-1-Azabicyclo[2.2.2]oct-3-yl]-6-({[(2-phenylethyl)amino]carbonyl}amino)-1-benzothiophene-2-carboxamide hydrochloride]: the results for the Ki (on α7 nAChR (setting [2]); in test [1]) were 22 nM and 12000 nM, respectively.
For `N#Cc1cccc(NC(=O)Nc2ccc3cc(C(=O)N[C@H]4CN5CCC4CC5)sc3c2)c1` [Example 6, N-[(3R)-1-Azabicyclo[2.2.2]oct-3-yl]-6-({[(3-cyanophenyl)amino]carbonyl}amino)-1-benzothiophene-2-carboxamide hydrochloride], the Ki at α7 nAChR is 7.9 nM; in test [1] (setting [3]), 1700 nM.
On to `COc1ccc(NC(=O)Nc2ccc3cc(C(=O)N[C@H]4CN5CCC4CC5)oc3c2)cc1` [Example 22, N-[(3R)-1-Azabicyclo[2.2.2]oct-3-yl]-6-({[(4-methoxyphenyl)amino]carbonyl}-amino)-1-benzofuran-2-carboxamide hydrochloride], for which, at α7 nAChR (setting [2]), the inhibition constant Ki is under 1 nM.
Take `O=C(Nc1ccc2cc(C(=O)N[C@H]3CN4CCC3CC4)sc2c1)Nc1c(F)cccc1F` [Example 11, N-[(3R)-1-Azabicyclo[2.2.2]oct-3-yl]-6-({[(2,6-difluorophenyl)amino]carbonyl}-amino)-1-benzothiophene-2-carboxamide hydrochloride]: the values for the Ki (at α7 nAChR; in test [1] (setting [3])) were 0.4 nM and 5500 nM, respectively.
In the case of `COc1cc(NC(=O)Nc2ccc3cc(C(=O)N[C@H]4CN5CCC4CC5)sc3c2)cc(OC)c1OC` [Example 14, N-[(3R)-1-Azabicyclo[2.2.2]oct-3-yl]-6-({[(3,4,5-trimethoxyphenyl)amino]-carbonyl}amino)-1-benzothiophene-2-carboxamide hydrochloride], the Ki in test [1] was found to be 6900 nM.
Turning to `O=C(Nc1ccccc1)Nc1cccc2cc(C(=O)N[C@H]3CN4CCC3CC4)sc12` [Example 21, 7-[(Anilinocarbonyl)amino]-N-[(3R)-1-azabicyclo[2.2.2]oct-3-yl]-1-benzothiophene-2-carboxamide hydrochloride], the Ki on α7 nAChR stood at 15 nM; in test [1] (setting [3]), 1600 nM.
In the same order, the values of `COc1cccc(NC(=O)Nc2ccc3cc(C(=O)N[C@H]4CN5CCC4CC5)sc3c2)c1` [Example 16, N-[(3R)-1-Azabicyclo[2.2.2]oct-3-yl]-6-[({[3-methoxyphenyl]amino}carbonyl)-amino]-1-benzothiophene-2-carboxamide hydrochloride] are 4.3 nM and 2100 nM.
